Results as given in patent US20240373851A1, “PEST CONTROL COMPOSITION AND PEST CONTROL METHOD” (SUMITOMO CHEMICAL COMPANY, LIMITED, priority 2021, published 2024).

How the values were obtained:
Type in all cases: in vivo
[1] = system: German cockroaches (Blattella germanica); experiment: Test Example 4: control test against German cockroaches, spray in chamber; conditions: adult German cockroaches; 1.5 mL sprayed; concentration [%]: nicofluprole 0.01, imiprothrin 0.01, deltamethrin 0.0002, alone or mixed; 45 minutes after spraying
Experimental: (§1) Next, the usefulness of the inventive composition for controlling pests will be indicated by Test Examples. In general, the control effect to be expected when treated with a mixture obtained by mixing given two or three types of active ingredient compounds is determined by the Colby's calculation equation represented by the following [Equation 1] and [Equation 2].
(§2) [formula] • P: moribund and mortal rates (%) when treated with an active ingredient compound X in the concentration of m [ppm] • Q: moribund and mortal rates (%) when treated with an active ingredient compound Y in the concentration of n [ppm] • EA: moribund and mortal rates (%) when treated with an active ingredient compound X in the concentration of m [ppm] and an active ingredient compound Y in the concentration of n [ppm] (hereinafter referred to as expected value A) […]
(§3) Regarding the synergistic effect of three types of the active ingredient compounds, in case where the moribund and mortal rates (%) when actually treated with a mixture obtained by mixing three types of the active ingredient compounds exceed the expected value A calculated by using the moribund and mortal rates (%) when actually treated with a mixture obtained by mixing two types of the active ingredient compounds among three types thereof, and the moribund and mortal rates (%) calculated when actually treated the remaining one type of the active ingredient compound, or the expected value B (%) calculated from the moribund and mortal rates (%) when actually treated with each of three types of the active ingredient compounds alone, it was determined that the synergistic effect exists. […]

[2] = system: German cockroaches (Blattella germanica); experiment: Test Example 5: control test against German cockroaches, spray in chamber; conditions: adult German cockroaches; 1.5 mL sprayed; concentration [%]: nicofluprole 0.01, imiprothrin 0.01, cyfluthrin 0.0002, alone or mixed; 45 minutes after spraying
Excerpt: (§4) Next, the usefulness of the inventive composition for controlling pests will be indicated by Test Examples.
(§5) (hereinafter referred to as expected value A)
(§6) (hereinafter referred to as expected value B)
(§7) In a plastic cup (diameter: 12.4 cm, height: 10.2 cm) lined with a filter paper, ten adult German cockroaches (Blattella germanica) (five males and five females each) or eleven adult German cockroaches were released, and the plastic cup was placed in the center of the bottom of a box-shaped chamber (46 cm×46 cm×70 cm in height). From the height of 60 cm, 1.5 mL of each of formulations prepared by dissolving a single agent of any one of nicofluprole, imiprothrin and cyfluthrin, or a mixed agent of two or more thereof in a mixture of isopropyl alcohol and Isopar M at a mixing ratio of 1:9 was sprayed under a spray pressure of 0.041 MPa. After a lapse of 45 minutes from spraying, the number of dead and moribund individuals was examined, and moribund and mortal rates (%) were determined by the above equation 3. The test was performed through two replicates. Dead individuals are completely immobile individuals, and moribund individuals are individuals who cannot get up when turned on their backs.

[3] = system: German cockroaches (Blattella germanica); experiment: Test Example 3: control test against German cockroaches, spray in chamber; conditions: adult German cockroaches; 1.5 mL sprayed; concentration [%]: broflanilide 0.02, imiprothrin 0.01, cyfluthrin 0.0016, alone or mixed; 420 minutes after spraying
Excerpt: as §4, §5, §6
as §7, with “each)” for “each) or eleven adult German cockroaches”, “broflanilide,” for “nicofluprole,”, “420” for “45”

[4] = system: German cockroaches (Blattella germanica); experiment: Test Example 8: control test against German cockroaches, spray in chamber; conditions: adult German cockroaches; 1.5 mL sprayed; concentration [%]: nicofluprole 0.01, imiprothrin 0.01, phenothrin 0.1, alone or mixed; 45 minutes after spraying
Experimental: as §1, §2, §3

[5] = system: German cockroaches (Blattella germanica); experiment: Test Example 6: control test against German cockroaches, spray in chamber; conditions: adult German cockroaches; 1.5 mL sprayed; concentration [%]: isocycloseram 0.05, imiprothrin 0.01, lambda-cyhalothrin 0.0025, alone or mixed; 60 minutes after spraying
Experimental: as §1, §2, §3

[6] = system: German cockroaches (Blattella germanica); experiment: Test Example 9: control test against German cockroaches, spray in chamber; conditions: adult German cockroaches; 1.5 mL sprayed; concentration [%]: broflanilide 0.02, imiprothrin 0.01, permethrin 0.05, alone or mixed; 420 minutes after spraying
Excerpt: as §4, §5, §6
as §7, with “each)” for “each) or eleven adult German cockroaches”, “broflanilide,” for “nicofluprole,”, “permethrin,” for “cyfluthrin,”, “420” for “45”

[7] = system: German cockroaches (Blattella germanica); experiment: Test Example 1: control test against German cockroaches, spray in chamber (cup without filter paper); conditions: adult German cockroaches; 1.5 mL sprayed; concentration [%]: broflanilide 0.01, imiprothrin 0.01, cypermethrin 0.01, alone or mixed; 120 minutes after spraying
Experimental: as §1, §2
Regarding the synergistic effect of three types of the active ingredient compounds, in case where the moribund and mortal rates (%) when actually treated with a mixture obtained by mixing three types of the active ingredient compounds exceed the expected value A calculated by using the moribund and mortal rates (%) when actually treated with a mixture obtained by mixing two types of the active ingredient compounds among three types thereof, and the moribund and mortal rates (%) calculated when actually treated the remaining one type of the active ingredient compound, or the expected value B (%) calculated from the moribund and mortal rates (%) when actually treated with each of three types of the active ingredient compounds alone, it was determined that the synergistic effect exists.
In a plastic cup (diameter: 12.4 cm, height: 10.2 cm), ten adult German cockroaches (Blattella germanica) (five males and five females each) were released, and the plastic cup was placed in the center of the bottom of a box-shaped chamber (46 cm×46 cm×70 cm in height). […] After a lapse of 120 minutes from spraying, the number of dead and moribund individuals was examined, and moribund and mortal rates (%) were determined by the equation 3 below. […]

[8] = system: German cockroaches (Blattella germanica); experiment: Test Example 2: control test against German cockroaches, spray in chamber; conditions: adult German cockroaches; 1.5 mL sprayed; concentration [%]: nicofluprole 0.01, imiprothrin 0.01, cypermethrin 0.01, alone or mixed; 120 minutes after spraying
Experimental: as §1, §2, §3

[9] = system: German cockroaches (Blattella germanica); experiment: Test Example 7: control test against German cockroaches, spray in chamber; conditions: adult German cockroaches; 1.5 mL sprayed; concentration [%]: isocycloseram 0.05, imiprothrin 0.01, cypermethrin 0.01, alone or mixed; 120 minutes after spraying
Experimental: as §1, §2, §3

Compound: CC1(C)[C@H](C(=O)O[C@H](C#N)c2cccc(Oc3ccccc3)c2)[C@@H]1C=C(Br)Br [Deltamethrin, deltamethrin]
- Moribund and mortal rates [%] after 45 minutes [1]: 0%

Compound: CC1(C)C(C=C(Cl)Cl)C1C(=O)OC(C#N)c1ccc(F)c(Oc2ccccc2)c1 (centres unmarked) [Cyfluthrin, cyfluthrin]
- Moribund and mortal rates [%] after 45 minutes [2]: 0%
- Moribund and mortal rates [%] after 420 minutes [3]: 0%

Compound: CC(C)=CC1C(C(=O)OCc2cccc(Oc3ccccc3)c2)C1(C)C (centres unmarked) [Phenothrin, phenothrin]
- Moribund and mortal rates [%] after 45 minutes [4]: 5%

Compound: CC1(C)[C@H](C(=O)O[C@H](C#N)c2cccc(Oc3ccccc3)c2)[C@@H]1/C=C(\Cl)C(F)(F)F (racemic) [Lambda-cyhalothrin, lambda-cyhalothrin]
- Moribund and mortal rates [%] after 60 minutes [5]: 45%

Compound: CN(C(=O)c1ccccc1)c1cccc(C(=O)Nc2c(Br)cc(C(F)(C(F)(F)F)C(F)(F)F)cc2C(F)(F)F)c1F [Broflanilide, broflanilide]
- Moribund and mortal rates [%] after 420 minutes [6]: 70%
- Moribund and mortal rates [%] after 120 minutes [7]: 5%
- Moribund and mortal rates [%] after 420 minutes [3]: 70%

Compound: CC1(C)C(C=C(Cl)Cl)C1C(=O)OC(C#N)c1cccc(Oc2ccccc2)c1 (centres unmarked) [Cypermethrin, cypermethrin]
- Moribund and mortal rates [%] after 120 minutes [7]: 45%
- Moribund and mortal rates [%] after 120 minutes [8]: 15%
- Moribund and mortal rates [%] after 120 minutes [9]: 50%
